{"source": "patent EP4796125A1", "about": "“TREATMENT OF PATIENT WITH NEGATIVE P53 GENE MUTATION, POSITIVE KRAS GENE MUTATION AND POSITIVE BRCA MUTATION” (Ascentawits Pharmaceuticals, Ltd., priority 2023, dated 2025)", "key": {"[1]": {"system": "NCI-H460 P53KO #1 cells", "assay": "In vitro proliferation under normoxia conditions (CTG, 72 hours), Example 29", "type": "cell-based, human", "conditions": "Table 25", "description": "(§1) • 1) NCI-H460 and NCI-H460 P53KO # 1 cell suspensions were added to 96-well plate (100 µL per well), with a cell density of 2000 cells/well. • 2) The cells were cultured overnight in a 37°C, 5% CO2 incubator. • 3) Compound Treatment\n(§2) Monotherapy: 24 hours after cell plating, each well was supplemented with 99.5 µL of growth medium. Then, 0.5 µL of test compounds at different concentrations was added. The plate was gently shaken to ensure even mixing, and then placed in a 37°C, 5% CO2 incubator.\n(§3) Combination therapy: 24 hours after cell plating, each well was supplemented with 99 µL of growth medium. Then, 0.5 µL of the combination compound was added. The plate was gently shaken to ensure even mixing, and then placed in an incubator for 2 hours. Then, 0.5µL of test compounds at different concentrations was added. The plate was gently shaken to ensure even mixing, and then placed in a 37°C, 5% CO2 incubator. • 4) The cell plate was placed in the incubator for 72 hours. • 5) The cell plate to be tested was placed at room temperature and equilibrated for 30 minutes, and 100 µL of medium was discarded from each well. • 6) 25 µL of CTG reagent was added to each well, placed at a fast shaker to shake for 2 minutes, and placed at room temperature for 30 minutes (protected from light). • 7) The chemiluminescence signal value was read using a multifunctional microplate reader with a reading time of 1000 ms. • 8) IC50 (half maximal inhibitory concentration) values were calculated using GraphPad Prism 5 software."}, "[2]": {"system": "NCI-H460 cells", "assay": "In vitro proliferation under normoxia conditions (CTG, 72 hours), Example 29", "type": "cell-based", "description": "as §1, §2, §3"}, "[3]": {"system": "RAD51 protein in H460 cells", "assay": "WB detection of RAD51 protein (level, degradation with MG-132, half-life with Cycloheximide)", "type": "cell-based", "conditions": "0.1 nM AST-3424, 5 µM Nutlin-3, then 5 µM MG-132 for 6 hours (Figure 21)", "description": "In the first experiment, the second experiment and the third experiment about the effect of the combination of AST-3424 and Nutlin-3 on Ser15-p53, Ser20-p53, Total p53, MDM2, and p21 proteins in H460 cells in Example 21, the applicant also performed WB detection of RAD51 protein.\n• 1) H460 cell suspension was added to a 24-well plate, with a cell density of 100000 cells/well and 995 µL of medium per well. • 2) The cells were cultured overnight in a 37°C, 5% CO2 incubator. • 3) Compound Treatment\nMonotherapy: 24 hours after cell plating, 5 µL of test compounds at different concentrations was added: 1% DMSO, 0.1 nM AST-3424, and 5 µM Nutlin-3. The plate was gently shaken to ensure even mixing, and then placed in a 37°C, 5% CO2 incubator. After culturing for another 24 hours, the cells were collected.\nCombination therapy: 24 hours after cell plating, • Adding 0.1 nM AST-3424 for pre-treatment for 2 hours, and then adding 5 µM Nutlin-3 for co-treatment for 22 hours; • Adding 1% DMSO and 5 µM MG-132 for co-treatment for 24 hours; • Adding 0.1 nM AST-3424 and 5 µM MG-132 for co-treatment for 24 hours; • Adding 5 µM Nutlin-3 and 5 µM MG-132 for co-treatment for 24 hours; • Adding 0.1 nM AST-3424 for pre-treatment for 2 hours, and then adding 5 µM Nutlin-3 for treatment for 16 hours, and then adding 5 µM MG-132 for co-treatment for 6 hours. […]"}, "[4]": {"system": "HPAF-II cells", "assay": "In vitro proliferation inhibition experiment (CTG, 72 hours), Example 20", "type": "cell-based, human", "conditions": "Homo sapiens, Table 15, HPAF-II, read-out: Inhibition rate/%", "description": "(§4) • 1) H460 and HPAF-II cell suspensions were added to a 96-well plate (100 µL per well), with cell densities of 2000 cells/well and 20000 cells/well, respectively. • 2) The cells were cultured overnight in a 37°C, 5% CO2 incubator. • 3) Compound Treatment\n(§5) Combination therapy: 24 hours after cell plating, each well was supplemented with 99 µL of growth medium. Then, 0.5 µL of Nutlin-3 or RITA was added to each well. The plate was gently shaken to ensure even mixing, and then placed in an incubator for 2 hours. Then, 0.5 µL of test compounds at different concentrations was added. The plate was gently shaken to ensure even mixing, and then placed in a 37°C, 5% CO2 incubator.\n(§6) Monotherapy: 24 hours after cell plating, each well was supplemented with 99.5 µL of growth medium. Then, 0.5 µL of test compounds at different concentrations was added. The plate was gently shaken to ensure even mixing, and then placed in a 37°C, 5% CO2 incubator. • 4) The cell plate was placed in the incubator for 72 hours. • 5) The cell plate to be tested was placed at room temperature and equilibrated for 30 minutes, and 100 µL of medium was discarded from each well. • 6) 25 µL of CTG reagent was added to each well, placed on a fast shaker to shake for 2 minutes, and placed at room temperature for 30 minutes (protected from light). • 7) The chemiluminescence signal value was read using a multifunctional microplate reader with a reading time of 1000 ms, and the corresponding inhibition rate data were calculated."}, "[5]": {"system": "H460 cells", "assay": "In vitro proliferation inhibition experiment (CTG, 72 hours), Example 20", "type": "cell-based", "conditions": "Homo sapiens, NCI-H460, read-out: Inhibition rate result / %", "description": "as §4, §5, §6"}, "[6]": {"system": "NRF2 and AKR1C3 in HPAF II cells", "conditions": "0.875, 1.75, 3.5, 7 µM SFN, overnight, with increasing concentration", "description": "A solution of SFN compound (Sulforaphane, NRF2 activator) was added to HPAF II cell suspension. The mixture was cultured overnight in a 37°C, 5% CO2 incubator. The cell protein lysate was collected for Western Blotting (WB) detection. The experiment consisted of five groups: 0.5% DMSO, 0.875 µM SFN, 1.75 µM SFN, 3.5 µM SFN, and 7 µM SFN. HPAF II cells were treated with different concentrations of the NRF2 activator SFN, and then subjected to Western Blotting to detect the expressions of NRF2 and AKR1C3."}, "[7]": {"system": "cell lines and mouse tumor models of BRCA pathogenic mutations", "conditions": "in vitro and in vivo pharmacodynamic experiments; data of WO2023174319A; cited from earlier work"}}, "note": "Peptide text beside a SMILES is read from it. * marks the point of attachment. Cbz = O=C(OCc1ccccc1)*"}
{"molecule": "CN(C)C(=O)c1cccc(Oc2cc3c(cc2[N+](=O)[O-])OCCC3OP(=O)(N2CC2)N2CC2)c1", "note": "(stereo not shown) [Compound C]", "values": [{"measurement": "IC50", "setting": "[1]; Homo sapiens, NCI-H460 P53KO # 1, normoxia, alone or + 3 µM AST-3021", "result": 0.0361, "unit": "µM"}, {"measurement": "Ratio, knockout / wild-type", "setting": "[1]; IC50 in NCI-H460 P53KO # 1 / NCI-H460", "result": 17.60}, {"measurement": "Ratio, Compound C/AST-3424", "setting": "[1]; NCI-H460 P53KO # 1, IC50 ratio", "result": 6.62}, {"measurement": "IC50", "setting": "[2]; Homo sapiens, Table 25, normoxia, alone or + 3 µM AST-3021", "result": 0.00205, "unit": "µM"}, {"measurement": "Ratio, Compound C/AST-3424", "setting": "[2]; Table 25, IC50 ratio", "result": 4.77}]}
{"molecule": "CC(C)C[C@@H](C=O)NC(=O)[C@H](CC(C)C)NC(=O)[C@H](CC(C)C)NC(=O)OCc1ccccc1", "note": "[MG-132] (Cbz-Leu-Leu-Leu-aldehyde)", "values": [{"measurement": "RAD51 protein level after addition of MG-132", "setting": "[3]", "result": "reverses the downregulation of RAD51 protein"}]}
{"molecule": "OCc1ccc(-c2ccc(-c3ccc(CO)s3)o2)s1", "note": "[RITA]", "values": [{"measurement": "inhibition at 2.5 µM", "setting": "[4]; group 1: AST 60 nM, RITA 2.5 µM, AST + RITA 60+ 2.5", "result": 2.86, "unit": "%"}, {"measurement": "inhibition at 5 µM", "setting": "[4]; group 2: AST 60 nM, RITA 5 µM, AST + RITA 60+ 5", "result": 5.56, "unit": "%"}, {"measurement": "inhibition at 0.025 µM", "setting": "[5]; Table 13, H460, group 1: AST 0.5 nM, RITA 0.025 µM, AST + RITA 0.5+0.025", "result": 22.3, "unit": "%"}, {"measurement": "inhibition at 0.05 µM", "setting": "[5]; Table 13, H460, group 2: AST 0.5 nM, RITA 0.05 µM, AST + RITA 0.5+0.05", "result": 22.4, "unit": "%"}]}
{"molecule": "C[S+]([O-])CCCCN=C=S", "note": "(stereo not shown) [SFN, Sulforaphane]", "values": [{"measurement": "expression of AKR1C3", "setting": "[6]", "result": "also increases simultaneously"}, {"measurement": "expression of NRF2", "setting": "[6]", "result": "increases significantly"}]}
{"molecule": "Cn1c(COP(=O)(NCCBr)NCCBr)cnc1[N+](=O)[O-]", "note": "[TH-302]", "values": [{"measurement": "sensitivity of cell lines and mouse tumor models of BRCA pathogenic mutations", "setting": "[7]", "result": "more sensitive"}]}
